This note sets out measurements from patent US20160050895A1, “TRANSGENIC NON-HUMAN ORGANISMS WITH NON-FUNCTIONAL TSPO GENES” (AUSTRALIAN NUCLEAR SCIENCE AND TECHNOLOGY ORGANIZATION, priority 2013, published 2016).

Entries after “also recorded” stand apart in the source; their conditions may differ.

Experiment [1] deals with TSPO. The experiment in a line: Radioligand membrane saturation binding with 3H-PK11195. Also on record: species or system mouse. Particulars: testicular and kidney tissue; TSPO-/- mice compared to TSPO+/+ mice. The protocol: (§1) Tissue samples were homogenised with T25 digital Ultra-Turrax homogenizer (Ika, Wilmington, N.C., USA) at speed setting 5 or 20000 rpm in approximately 45 mL of ice-cold TRIS buffer (pH 7.4), collected by centrifugation at 48000 g and the supernatant was then discarded. The procedure was then immediately repeated, this acts as an extra wash step to remove any soluble interfering substances to radioligand binding (Byland et al. 1993). Following the second centrifugation and removal ofsupernatant the samples were resuspended in approximately 50 volumes of ice-cold TRIS buffer (pH 7.4). Samples were aliquoted stored in −80° C. until required.
(§2) For TSPO knock-out mice studies, radioligand binding was performed using 3H-PK11195 racemate across a range of concentrations (FIG. 4). PK11195 is a TSPO specific probe. Total and non-specific binding was determined through 8 concentrations of 3H-PK11195 ranging from 0.56 nM to 20 nM. Non-specific binding was determined by the addition of 5 μM PK11195 to all concentrations of 3H-PK11195. […]
(§3) Organs were homogenised, washed twice in ice-cold 50 mM Tris-HCl (pH 7.4) by centrifugation at 48000×g, resuspended in 50 volumes of ice-cold 50 mM Tris-HCl, and protein concentration was determined using a BCA protein assay kit (Thermo Fisher Scientific). […] Non-specific binding was determined with 5 μM PK11195. […]

The test system of experiment [2] is TSPO. The experiment in a line: Film autoradiography of brain sections after facial nerve axotomy. The format is binding, mouse. The following applies: TSPO-/- mice. An excerpt:
Procedures for facial nerve axotomy were approved by the animal ethics committee at the University of Sydney. Animals were anaesthetised using Isoflurane anaesthesia. Animals were monitored for a combination of respiration, heart rate, oxygen saturation and temperature during procedures using a variety of monitoring equipment to ensure anaesthetic depth. The surgical process commenced when foot-pad or plantar reflex could no longer be elicited. The fur on the ipsilateral (right) side of the neck was shaved from the ear downwards, and the skin cleaned using 70% ethanol. A small incision (0.5-0.7 cm in length) overlying the musculature covering the stylomastoid foramen was made. The facial nerve was identified, isolated and then transected completely. The skin of incision was closed with heal-glue. […] The animals were euthanized with CO2 3 days after the axotomy and brain tissue, including facial nerve nuclei in the brain stem and cerebellum, was immediately dissected, snap-frozen in liquid nitrogen, and then stored in −80° C. freezer until the cryostat section.
A small incision (0.5-0.7 cm) in the skin 0.5 cm dorsal and lateral to the ear was made and the facial nerve transected under an operating microscope. The incision was closed with 3M™ Vetbond™ Tissue Adhesive (St. Paul, Minn., USA). […] Mice were monitored carefully and euthanized with CO2 three days after the operation. Brains were dissected, placed in OCT, transferred to liquid nitrogen, and stored at −80° C. until cryo-sectioning.
Tissue sections from TSPO^+/+, TSPO^+/− and TSPO^−/− mice were incubated at room temperature for 20 min in 170 mM Tris-HCl pH 7.4 containing 1 nM [^3H]PK11195 (specific activity 84 Ci/mmol; Perkin Elmer, Waltham, Mass., USA), washed twice for 5 min in 170 mM Tris-HCl, rinsed with 3 dips in ice-cold MilliQ H2O, and dried. […] Displacement binding was carried out in the presence of PK11195 (10 μM), CLINDE (10 μM) and PBR-11 (10 μM).

For experiment [3], the target named is TSPO (Mus musculus, UniProt P50637). Briefly: Radioligand membrane saturation binding with 3H-PK11195. Also on record: Snap-frozen tissues were sectioned at 20 μm in a cryostat; from tissue; host or cells: mouse organ sections (brain, retina/eye, heart, adrenal, kidney, testis, spleen), C57BL/6 background. Particulars: testicular and kidney tissue; TSPO+/- mice compared to TSPO+/+ mice. Here is the method: as §1, §2, §3

As for `CC[C@@H](C)N(C)C(=O)c1cc2ccccc2c(-c2ccccc2Cl)n1` [[^3H]PK11195], the “Specific binding using [3H]PK11195” value with TSPO [1] is “close to zero signal”; at TSPO [3] it was “approximately half the signal”. In the experiment with TSPO [2] (after facial nerve axotomy, activated microglia present), the “TSPO ligand binding in the injured facial nucleus” value is given as “no binding; also recorded: not associated with an increase in the binding”. For the same compound, the “selectivity in pathologically changed tissue” value in the experiment with TSPO [2] (injured facial nucleus) is “high selectivity; also recorded: holds true”.
